Marks after values point to notes of the source that are not given here.
Experiments:
[1] = taste dilution tests; cited from earlier work
[2] = test system: trained panelists; assay: time-intensity analysis of cooling, beverage model system; type: in vivo; details: 100 ppm, 2-minute window
Description: In order to evaluate the potential use of menthol glycinates as […] different food, beverage and oral hygiene products, select compounds were incorporated in different application systems. A beverage model system, a lozenge and a mouthwash application were created, and time-intensity analysis was performed using trained discrimination analysis panelists. Time-Intensity (TI) is a temporal sensory method. During TI evaluations, assessors are asked to score the intensity of perception of a single attribute over consumption of the product. Compared to single point measurements, TI analysis can characterize the onset, decline and rates thereof, of particular sensory characteristics. This analysis may reveal rich information regarding the intensity of an attribute over the time domain and identify temporal perceptual differences among samples that can greatly impact the overall profile of a product. For each sample evaluation, a temporal curve is generated, based on duplication. The temporal curves for each panelist are combined to generate a combined curve for each product that is evaluated. The following distinct parameters were calculated: Imax: peak intensity or maximum observed intensity on the whole curve; […]: time point where the reaction to the stimulus is first perceived on the curve; Tmax: time position of the peak intensity on the curve; Tplateau: protraction of maximum intensity or duration of maximum intensity; Text: time point of extinction of the perception of the stimulus, defined as the position in time after the peak intensity where the measured intensity disappears (or the end of evaluation window); Iext: intensity at time of extinction or end of evaluation; R increase: slope or rate of intensity increase between […] and Tmax; R decrease: slope or rate of intensity decrease between Tmax and Text; and Area: the total area under the time-intensity curve. The formula detailed in Table 6 was employed to create a simple beverage model system to evaluate menthol glycinates of interest using time-intensity analysis. [table] For time-intensity (T-I) evaluation of the cooling attribute of the model beverage system 8 panelists were recruited (2 male, 6 female). Panelists were trained in basic taste descriptive analysis. A sweetness reference series (intensity range 2-12) was provided to be used as cross-modality reference to aid in scaling the intensity of the cool attribute present in the model beverage samples. Panelists evaluated samples in duplicates and all sample were presented blinded and in a randomized order using a 3-digit code. Panelists were instructed to hold the sample in their mouths for 30 seconds and then expectorate. During the hold period panelists were instructed to note cooling onset and intensity. After expectorating, the panelists continued to report cooling intensity at predetermined time points throughout an evaluation window of 2 minutes. Samples were presented pre-weighted, and panelists were instructed to evaluate the entire amount of sample to ensure uniformity among panelists and replicate evaluations. Evaluations were performed with at least 4 hours between them to ensure no carry over. Data analysis for generation of T-I statistics and ANOVA analysis to determine significant difference among samples was performed using R STUDIO.

Compound	cooling threshold [1] [ppm]	Imax (peak cooling intensity) ([2]; 2% propylene glycol in water)	AUC [2]	Rdec [2]	Rinc [2]	Tplateau (duration of maximum intensity) [2]	Tstart [2]
CC1CCC(C(C)C)C(O)C1 (stereo not shown) [Menthol, menthol]	0.8	5^a	429.1^a	0.03^a	0.12^a	23.3^a	10^a
CCCCN(CCCC)CC(=O)O[C@@H]1C[C@H](C)CC[C@H]1C(C)C [Product 10, (1R,2S,5R)-2-Isopropyl-5-methylcyclohexyl 2-(dibutylamino)acetate]				0.06^a	0.04^b		6.1^b
CC(C)[C@@H]1CC[C@@H](C)C[C@H]1OC(=O)CN(C)C(C)C [Product 16, (1R,2S,5R)-2-Isopropyl-5-methylcyclohexyl 2-(isopropyl(methyl)amino)acetate]				0.02^a	0.05^b		16^c
(1R,2S,5R)-2-Isopropyl-5-methylcyclohexyl 2-(isopropylamino)acetate [Product 7]				0.02^a	0.06^b		16^c

Source: patent publication US20210093531A1, “DERIVATIVES OF MENTHOL AND USES THEREOF” (Board of Trustees of Northern Illinois University, priority 2019, published 2021)
